Source: US6875451B2, “Compositions and methods for the treatment of primary and metastatic neoplastic diseases using arsenic compounds” (PolaRx Biopharmaceuticals Inc., priority 1997, dated 2005)

Legend:
HOP-92 = experiment: SRB growth assay, 2 days exposure, non-small cell lung cancer; assay type: cell-based
Procedure: (§1) Arsenic trioxide (1 mg/ml, 10 mg/ampoule, manufactured by Taylor Pharmaceuticals, Decatur, Ill.) was tested at five concentrations each at 10-fold dilutions, i.e., 10^−5, 10^−6, 10^−7, 10^−8 and 10^−9 μg/ml.
(§2) The in vitro tests were performed by incubating the test cells in the presence of the indicated concentration of arsenic trioxide under standard culture conditions for a designated period of time, which is followed by a sulforhodamine B (SRB) protein assay to estimate cell viability or growth. The cell lines are organized into subpanels according to the origin of the cell lines, e.g., leukemia, breast cancer, etc. A description of the cell lines and method of testing is described in Monk et al. (1997, Anticancer Drug Des. 12:533-41) and Weinstein et al., (1997, Science 275:343-9), which are incorporated herein in their entirety.
(§3) The measurement of an effect is expressed in Percentage Growth (PG). The measured effect of the compound on a cell line is calculated according to one or the other of the following two expressions: If (Mean ODtest−Mean ODzero)≧0. then PG=100×(Mean ODtest−Mean ODzero)/(Mean ODctrl−Mean ODzero) If (Mean ODtest−Mean ODzero)<0. then PG=100×(Mean ODtest−Mean ODzero)/(Mean ODzero where: • Mean ODzero=the average of optical density measurements of SRB-derived color just before exposure of cells to the test compounds; • Mean ODtest=the average of optical density measurements of SRB-derived color after exposure of cells to the test compound for a designated period of time; and • Mean ODctrl=the average of optical density measurements of SRB-derived color after with no exposure of cells to the test compound for a designated period of time
(§4) The first two columns describe the subpanel (e.g., leukemia) and cell line (e.g., CCRF-CEM) involved. The next two columns list the Mean ODzero and Mean ODctrl; the next five columns list the Mean ODtest for each of five different concentrations. Each concentration is expressed as the log10 (molar or μg/ml). The next five columns list the calculated PGs for each concentration. The response parameters GI50, TGI and LC50 are interpolated values representing the concentrations at which the PG is +50, 0, and −50, respectively. Sometimes these response parameters cannot be obtained by interpolation. If, for instance, all of the PGs in a given row exceed +50, then none of the three parameters can be obtained by interpolation. In such a case, the value given for each response parameter is the highest concentration tested and is preceded by a “>” sign. This practice is extended similarly to the other possible situations where a response parameter cannot be obtained by interpolation.
(§5) In the first set, the cells from 56 different cancer cell lines were exposed to five concentrations of arsenic trioxide continuously for two days prior to performing the SRB assay. In the second set, the cells from 50 different cell lines (a subset of the first 56 cell lines, plus the renal cancer cell line 786-0) were exposed continuously for six days prior to the SRB assay.

NCI-8322M = experiment: as above; assay type: cell-based
Procedure: as §1, §2, §3, §4, §5

Substance: arsenic trioxide
- TGI (HOP-92): >0.0126 ng/mL
- Percent Growth (HOP-92; log10 conc −4.9): 31%
- Percent Growth (HOP-92; log10 conc −5.9): 74%
- Percent Growth (HOP-92; log10 conc −6.9): 82%
- Percent Growth (HOP-92; log10 conc −7.9): 92%
- Percent Growth (HOP-92; log10 conc −8.9): 88%
- TGI (NCI-8322M): >0.0126 ng/mL
- Percent Growth (NCI-8322M; log10 conc −4.9): 61%
- Percent Growth (NCI-8322M; log10 conc −5.9): 99%
- Percent Growth (NCI-8322M; log10 conc −6.9): 97%
- Percent Growth (NCI-8322M; log10 conc −7.9): 106%
- Percent Growth (NCI-8322M; log10 conc −8.9): 117%
